This is an account of results in US7915291B2, “Hepatitis C virus inhibitors” (Bristol-Myers Squibb Company, priority 2002, dated 2011).

The target in the assay is T1, HCV NS3/4A protease complex, H77C strain (Hepatitis C virus genotype 1a, UniProt P27958, C1454S).
T1 construct: recombinant HCV NS3/4A protease complex (amino acids 1027 to 1711); inferred from pET21b vector and Ni-NTA purification; made in house; host or cells: Escherichia coli BL21 (DE3), pET21b
Description: Recombinant HCV NS3/4A protease complex FRET peptide assay (H77C strain). The assay is classed as biochemical, HCV genotype 1a. The source says:
Recombinant HCV NS3/4A Protease Complex FRET Peptide Assay
The purpose of this in vitro assay was to measure the inhibition of HCV NS3 protease complexes, derived from the BMS, H77C or J416S strains, as described below, by compounds of the present invention. This assay provides an indication of how effective compounds of the present invention would be in inhibiting HCV proteolytic activity.
Serum from an HCV-infected patient was obtained from Dr. T. Wright, San Francisco Hospital. An engineered full-length cDNA (compliment deoxyribonucleic acid) template of the HCV genome (BMS strain) was constructed from DNA fragments obtained by reverse transcription-PCR(RT-PCR) of serum RNA (ribonucleic acid) and using primers selected on the basis of homology between other genotype 1a strains. From the determination of the entire genome sequence, a genotype 1a was assigned to the HCV isolate according to the classification of Simmonds et al. (See P Simmonds, Kans. Rose, S Graham, S W Chan, F McOmish, B C Dow, E A Follett, P L Yap and H Marsden, J. Clin. Microbiol., 31(6), 1493-1503 (1993)). […]

T1 sequence (P27958 1027-1657 C1454S): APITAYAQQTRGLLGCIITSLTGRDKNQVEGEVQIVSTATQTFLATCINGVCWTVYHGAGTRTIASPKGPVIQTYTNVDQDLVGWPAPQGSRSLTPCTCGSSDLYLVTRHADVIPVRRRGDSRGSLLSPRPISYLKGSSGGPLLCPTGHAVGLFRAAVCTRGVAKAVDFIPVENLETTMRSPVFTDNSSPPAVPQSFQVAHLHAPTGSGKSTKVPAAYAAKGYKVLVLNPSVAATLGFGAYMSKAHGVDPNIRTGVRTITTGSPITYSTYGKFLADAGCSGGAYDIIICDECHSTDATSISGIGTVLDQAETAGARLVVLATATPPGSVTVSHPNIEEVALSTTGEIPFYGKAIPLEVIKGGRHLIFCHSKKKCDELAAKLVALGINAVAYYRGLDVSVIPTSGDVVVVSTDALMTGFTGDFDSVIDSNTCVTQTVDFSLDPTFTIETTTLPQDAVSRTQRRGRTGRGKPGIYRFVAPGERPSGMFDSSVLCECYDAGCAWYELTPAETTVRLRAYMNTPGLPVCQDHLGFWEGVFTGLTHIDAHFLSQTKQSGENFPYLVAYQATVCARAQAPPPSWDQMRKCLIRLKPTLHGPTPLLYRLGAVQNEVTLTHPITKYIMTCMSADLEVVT
T1 sequence (P27958 1658-1714 partner, looked up, stated change not applied): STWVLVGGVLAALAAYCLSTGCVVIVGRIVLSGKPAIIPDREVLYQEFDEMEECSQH

What is called IC50 is the concentration that gives 50% inhibition. Consider `C=C[C@@H]1C[C@]1(NC(=O)[C@@H]1C[C@@H](Oc2nc(C3CC3)cc3ccccc23)CN1C(=O)[C@@H](NC(=O)OC(C)(C)C)C(C)(C)C)C(=O)NS(=O)(=O)C1CC1` [Compound 34], for which the IC50 is 3 nM.
